Experimental data as given in PubChem BioAssay AID248 (DTP/NCI, 2004).
Toxic doses and inconclusive results are not listed.

Test system: L1210 leukemia ip in BDF1 mice, survival T/C
Test: NCI In Vivo Anticancer Drug Screen. Data for tumor model L1210 Leukemia (intraperitoneal) in B6D2F1 (BDF1) mice
Details: endpoint: mean survival time, higher = longer survival
Procedure, shortened: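 Tumor cells were implanted, animals were treated, and survival was followed. The result divides the treated measurement by the vehicle-control measurement.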

[1] = dose: 100.0 mg/kg/injection, schedule: Q01DX009 (ip), vehicle: Klucel (hydroxypropylcellulose) (HPC)
[2] = dose: 100.0 mg/kg/injection, schedule: Q04DX003 (ip), vehicle: Klucel (hydroxypropylcellulose) (HPC)
[3] = dose: 200.0 mg/kg/injection, schedule: Q04DX003 (ip), vehicle: Klucel (hydroxypropylcellulose) (HPC)
[4] = dose: 100.0 mg/kg/injection, schedule: Q04DX003 (ip), vehicle: saline
[5] = dose: 200.0 mg/kg/injection, schedule: Q04DX003 (ip), vehicle: saline

CCCCCCCCP(=S)(CCCCCC)CCCCCC
T/C (dose: 100.0 mg/kg/injection, schedule: Q01DX001 (ip), vehicle: saline with Tween-80): 104 % of control | T/C (dose: 200.0 mg/kg/injection, schedule: Q01DX001 (ip), vehicle: saline with Tween-80): 90 % of control | T/C (dose: 400.0 mg/kg/injection, schedule: Q01DX001 (ip), vehicle: saline with Tween-80): 87 % of control

COC(=O)CC(c1cccc2ccccc12)c1cccc2ccc3ccccc3c12 (stereo unspecified)
T/C (dose: 100.0 mg/kg/injection, schedule: Q04DX003 (ip), vehicle: DMSO): 92 % of control | T/C (dose: 200.0 mg/kg/injection, schedule: Q04DX003 (ip), vehicle: DMSO): 94 % of control | T/C (dose: 400.0 mg/kg/injection, schedule: Q04DX003 (ip), vehicle: DMSO): 89 % of control

C[N+]1=C2CCCCC2=C(N)CC1
T/C (dose: 6.25 mg/kg/injection, schedule: Q01DX009 (ip), vehicle: saline sonified): 106 % of control | T/C (dose: 12.5 mg/kg/injection, schedule: Q01DX009 (ip), vehicle: saline sonified): 92 % of control | T/C (dose: 25.0 mg/kg/injection, schedule: Q01DX009 (ip), vehicle: saline sonified): 92 % of control

O=C(O)C1CC2c3ccccc3C1c1ccccc12 (stereo unspecified)
T/C (dose: 25.0 mg/kg/injection, schedule: Q01DX009 (ip), vehicle: Klucel (hydroxypropylcellulose) (HPC)): 90 % of control | T/C (dose: 50.0 mg/kg/injection, schedule: Q01DX009 (ip), vehicle: Klucel (hydroxypropylcellulose) (HPC)): 97 % of control | T/C [1]: 104 % of control | T/C [2]: 90 % of control

O=C1CSC=C(c2ccccc2)O1
T/C (dose: 100.0 mg/kg/injection, schedule: Q04DX002 (ip), vehicle: saline with Tween-80): 115 % of control | T/C (dose: 200.0 mg/kg/injection, schedule: Q04DX002 (ip), vehicle: saline with Tween-80): 101 % of control | T/C (dose: 400.0 mg/kg/injection, schedule: Q04DX002 (ip), vehicle: saline with Tween-80): 112 % of control

CC(=O)CC(=O)Nc1cccc(NC(=O)CC(C)=O)c1
T/C (dose: 100.0 mg/kg/injection, schedule: Q01DX001 (ip), vehicle: Klucel (hydroxypropylcellulose) (HPC)): 99 % of control | T/C (dose: 200.0 mg/kg/injection, schedule: Q01DX001 (ip), vehicle: Klucel (hydroxypropylcellulose) (HPC)): 94 % of control | T/C (dose: 400.0 mg/kg/injection, schedule: Q01DX001 (ip), vehicle: Klucel (hydroxypropylcellulose) (HPC)): 101 % of control

CN1CNC(=O)NC1
T/C [1]: 113 % of control | T/C [2]: 105 % of control | T/C (dose: 200.0 mg/kg/injection, schedule: Q01DX009 (ip), vehicle: Klucel (hydroxypropylcellulose) (HPC)): 105 % of control | T/C [3]: 105 % of control | T/C (dose: 400.0 mg/kg/injection, schedule: Q01DX009 (ip), vehicle: Klucel (hydroxypropylcellulose) (HPC)): 103 % of control | T/C (dose: 400.0 mg/kg/injection, schedule: Q04DX003 (ip), vehicle: Klucel (hydroxypropylcellulose) (HPC)): 111 % of control

C[N+]1(Cc2ccccc2)C2CCC1C(=O)N(Cc1ccccc1)C2=O (stereo unspecified)
T/C (dose: 75.0 mg/kg/injection, schedule: Q01DX001 (ip), vehicle: saline): 103 % of control | T/C (dose: 150.0 mg/kg/injection, schedule: Q01DX001 (ip), vehicle: saline): 116 % of control

CS(=O)(=O)/C=C\c1ccccc1
T/C [4]: 101 % of control | T/C [5]: 95 % of control | T/C (dose: 400.0 mg/kg/injection, schedule: Q04DX003 (ip), vehicle: saline): 103 % of control

O=C(NNC(=O)Nc1ccc(C2=NCCN2)cc1)Nc1ccc(C2=NCCN2)cc1
T/C (dose: 8.0 mg/kg/injection, schedule: Q01DX Z (ip), vehicle: carboxymethylcellulose (CMC)): 95 % of control | T/C (dose: 16.0 mg/kg/injection, schedule: Q01DX Z (ip), vehicle: carboxymethylcellulose (CMC)): 98 % of control | T/C (dose: 32.0 mg/kg/injection, schedule: Q01DX Z (ip), vehicle: carboxymethylcellulose (CMC)): 108 % of control | T/C (dose: 64.0 mg/kg/injection, schedule: Q01DX Z (ip), vehicle: carboxymethylcellulose (CMC)): 165 % of control

CCOC(=O)CNS(=O)(=O)CCN1C(=O)c2ccccc2C1=O
T/C (dose: 50.0 mg/kg/injection, schedule: Q04DX003 (ip), vehicle: Klucel (hydroxypropylcellulose) (HPC)): 98 % of control | T/C [2]: 100 % of control | T/C [3]: 98 % of control

COc1ccc2c(c1)CCC1C2=CC(=O)/C1=C\[O-].COc1ccc2c(c1)CCC1C2=CC(=O)/C1=C\[O-].[Cu+2] (stereo unspecified)
T/C (dose: 50.0 mg/kg/injection, schedule: Q01DX009 (ip), vehicle: saline with Tween-80): 97 % of control | T/C (dose: 100.0 mg/kg/injection, schedule: Q01DX009 (ip), vehicle: saline with Tween-80): 104 % of control | T/C [4]: 92 % of control | T/C [5]: 94 % of control
